Assay results published in US12246010B2, “Formulations of tegavivint and related compounds” (Iterion Therapeutics, Inc., priority 2018, dated 2025).
Values after ≈ are worked out from the molar mass of the structure shown. Values joined by “and” are separate entries in the source; they are usually repeats but may differ in a detail not shown here. Identical values can stand only once. Like-named read-outs stand apart in the source and are kept apart here.

What was measured:
[1] = Tegavivint solubility in water and organic solvents; format: physicochemical
Method: In organic solvents, tegavivint has solubilities as shown: DMSO (334 μg/mL), ethanol (260 μg/mL), methanol (299 μg/mL), acetone (1 mcg/mL), dichloromethane:ethanol (1:4) (1 mg/mL).

[2] = Pharmacokinetics after slow intravenous bolus in female Sprague-Dawley rats; format: in vivo; details: 10 mg/kg slow intravenous bolus; for half-life: iv, 10 mg/kg
Method: The objective of this study was to investigate the pharmacokinetics of tegavivint following a single intravenous slow bolus administration of tegavivint to female Sprague-Dawley rats.
Dose Preparation and Administration The stock formulation (25 mg/mL) was provided. Accurately, 600 μL of dose formulation (Stock, 25 mg/mL) was transferred to labeled glass container. To this, 2.4 mL of 5% dextrose solution was added, vortex mixed and sonicated to obtain homogeneous suspension of 5 mg/mL strength. Animals were dosed underfed condition. Rats were administered a single dose of 10 mg/kg of tegavivint by slow intravenous bolus (over 1.5 min) jugular vein catheter using 1 mL BD syringe guided with 23 G blunt needle at a dose volume of 2 mL/kg. Syringes used for dosing were weighed before and after dose administration in order to calculate the actual dose administered.
Sample Collection and Processing Blood samples were collected at 0.083, 0.25, 0.5, 1, 2, 4, 6, 8, 12 and 24 h post dose. At each time point, approximately, 0.25 mL of blood was withdrawn from jugular vein of the cannulated rat and transferred to a labeled microfuge tube containing 200 mM K2EDTA (20 μL per mL of blood). Following sampling, equal volume of heparinized saline was replaced into the catheter. The blood samples were kept on wet ice at all times immediately after collection and the plasma was separated by centrifugation at 5000 g for 5 minutes at 4±2° C. The plasma samples were separated within 1 h of scheduled time and stored below −60° C. until bioanalysis.
Bioanalysis Bioanalysis was performed using fit-for-purpose LC-MS/MS method for the quantification of BC2059 in rat plasma samples. The calibration curve (CC) for the method consisted of at least 6 non-zero calibration standards along with a blank and blank with internal standard samples with a lower limit of quantification (LLOQ) of 0.050 μg/mL. Study samples were analyzed along with three sets of quality control samples (9 QC samples; low, medium and high QC samples in triplicate).
Pharmacokinetic Data Analysis The pharmacokinetic parameters for tegavivint were calculated using the non-compartmental analysis tool ([…]) of the validated Phoenix® WinNonlin® software (version 6.3). The area under the concentration time curve (AUClast and AUCinf) was calculated by linear trapezoidal rule. The CO (back extrapolated concentration at time zero) was estimated following intravenous bolus dose administration by back-extrapolating the first two concentration values. The total plasma clearance (CL) and volume of distribution at steady-state (Vss) were estimated values. The elimination rate constant value (k) was calculated by linear regression of the log-linear terminal phase of the concentration-time profile using at least 3 declining concentrations in terminal phase with a correlation coefficient of >0.8. The terminal half-life value (T½) was calculated using the equation 0.693/k. The alpha and beta half-lifes were calculated and reported.

[3] = Dose-escalating intravenous infusion study in male Beagle dogs (plasma PK); format: in vivo; details: dog
Method: • Study Animals: Four male non-naïve Beagle dogs were released by Xenometrics for study use on Apr. 20, 2017. The animals were fed Harlan Teklad® Global 25% Protein Certified Dog Diet 2025C ad libitum throughout the study (except for brief periods during in-life procedures when it was • Dosing: Animals were dosed via intravenous (IV) infusion (via jugular vein) for 4 hours (h) [±5 minutes (min)].
[…] All blood samples were collected within 10 minutes of the target time and processed per protocol. Bioanalytical results indicated tegavivint was present in all plasma samples.
The pharmacokinetic parameters were determined for BC-2059 following the final 15 mg/kg infusion of the drug over 4 h.

[4] = Lung concentration after nebulized whole body exposure of mice; format: in vivo, bcat-Ex3 mice; details: for concentration at 5 day: male, bcat-Ex3, mouse, lung, inhaled
Method: The purpose of this experiment was to test nebulized delivery of nanosuspensions.
Tegavivint particles suspended in Poloxamer 188/sorbitol at a concentration of 25 mg/mL were used.
These formulations were applied to the mice in the form of aerosols, through the method of whole body exposure. The mice were placed inside a plastic box. This box was sealed and connected by one of its sides to the outlet of the nebulizer device, and on the other side to a system of closed water. The whole procedure was carried out inside the fume hood of the animal room.
For the first experiment, the nebulizer kit of SATER LABS was used. This device uses the jet system. The device was primed with 5 ml of the drug, i.e. 125 mg of tegavivint (BC2059), for each group of 5 mice, and then the device was connected to the power source for nebulization. The energy was supplied by a DeVilbiss compressor model 646, which allows 5-7 pounds of pressure, and a flow of 6-8 liters per minute. For the second experiment, the device used was the Altera, ultrasonic nebulizer.
For the two experiments, 10 male bcat-Ex3 mice were used for each set. These mice were separated into 2 groups of 5 mice each. The first group received the drug daily, for 5 consecutive days. The second group received the drug only once (the fifth day). On day 5 all mice were sacrificed, lung harvested, and samples were stored at −30 degrees, in two labeled nylon bags, each containing the 5 samples from each group.

red blood cells = experiment: Hemolysis of red blood cells; format: cell-based; details: in the nanoparticle form or when dissolved in DMSO
Source text: It was hypothesized that the tween/ethanol/PEG/Vitamin E/Intralipid solvent-based excipients and probable drug precipitation were responsible for the infusion reactions and not tegavivint itself.

[5] = female, Sprague-Dawley, plasma, rat
[6] = 15 mg/kg 4 h IV infusion, individual animals, 15 mg/kg
[7] = mouse lung, Nebulizer (ultrasonic eRapid, Altera), 5 daily doses on Days 1-5

C[C@@H]1C[C@H](C)CN(S(=O)(=O)c2ccc3c(c2)C(=NO)c2cc(S(=O)(=O)N4C[C@H](C)C[C@H](C)C4)ccc2C3=NO)C1 [BC2059, tegavivint]
solubility ([1]; DMSO, organic solvent or mixture, read-out: solubility in DMSO): 334 µg/mL (≈ 567 µM)
solubility ([1]; acetone, organic solvent or mixture, read-out: solubility in acetone): 1 µg/mL (≈ 1.7 µM)
solubility ([1]; dichloromethane:ethanol (1:4), organic solvent or mixture, read-out: solubility in dichloromethane:ethanol (1:4)): 1000 µg/mL (≈ 1700 µM)
solubility ([1]; ethanol, organic solvent or mixture, read-out: solubility in ethanol): 260 µg/mL (≈ 442 µM)
solubility ([1]; methanol, organic solvent or mixture, read-out: solubility in methanol): 299 µg/mL (≈ 508 µM)
solubility ([1]; water, aqueous buffer, across the pH range of 2 to 10, read-out: solubility in water): < 0.25 µg/mL
CL lower than normal rat liver blood flow of 55 mL/min/kg [2]: about 5.5 fold
AUC(0-inf) [2, 5]: 17200 ng·h/mL
AUC(0-t) [2, 5]: 14600 ng·h/mL
MRT last [2, 5]: 4.07 h
C0 ([2]; female, Sprague-Dawley, plasma, rat, back extrapolated): 62.2 µg/mL
clearance ([2]; female, Sprague-Dawley, plasma, rat, mean, n=4): 9.92 mL/min/kg
Vd ([2]; female, Sprague-Dawley, plasma, rat, mean, n=4, read-out: Vss): 6.54 L/kg
half-life ([2]; female, Sprague-Dawley, rat, plasma, regression points 0.5, 1 and 2 h, read-out: T1/2 Alpha (converted)): 32.8 min
half-life ([2]; female, Sprague-Dawley, rat, plasma, regression points 6, 8, 12 and 24 h, read-out: T1/2 Beta (converted)): 828 min
Vss greater than normal body water of 0.7 L/kg ([2]; rat): ~9.34 fold
Plasma BC-2059, 4 h [3, 6]: 1310 ng/mL and 1320 ng/mL and 1150 ng/mL
Plasma BC-2059, 12 h [3, 6]: 916.0 ng/mL and 1050 ng/mL and 777 ng/mL
Plasma BC-2059, 24 h [3, 6]: 1120 ng/mL (2×) and 1070 ng/mL
Plasma BC-2059, 36 h [3, 6]: 834 ng/mL and 931 ng/mL and 708 ng/mL
Plasma BC-2059, 48 h [3, 6]: 663 ng/mL and 656 ng/mL and 647 ng/mL
Plasma BC-2059, 72 h [3, 6]: 511 ng/mL and 480 ng/mL and 524 ng/mL
Plasma BC-2059, 96 h [3, 6]: 360 ng/mL and 310 ng/mL and 364 ng/mL
Plasma BC-2059, 120 h [3, 6]: 321 ng/mL and 262 ng/mL and 281 ng/mL
Plasma BC-2059, Predose ([3]; prior to Dose 6 (15 mg/kg 4 h IV infusion), individual animals, 15 mg/kg): 257 ng/mL and 404 ng/mL and 309 ng/mL and 284 ng/mL
concentration at 4 h ([3]; male, Beagle, plasma, iv, 15 mg/kg, 15 mg/kg 4 h IV infusion, individual animals, read-out: Plasma BC-2059, 4 h): 1600 ng/mL
concentration at 12 h ([3]; male, Beagle, plasma, iv, 15 mg/kg, 15 mg/kg 4 h IV infusion, individual animals, read-out: Plasma BC-2059, 12 h): 784 ng/mL
concentration at 24 h ([3]; male, Beagle, plasma, iv, 15 mg/kg, 15 mg/kg 4 h IV infusion, individual animals, read-out: Plasma BC-2059, 24 h): 723 ng/mL
concentration at 36 h ([3]; male, Beagle, plasma, iv, 15 mg/kg, 15 mg/kg 4 h IV infusion, individual animals, read-out: Plasma BC-2059, 36 h): 674 ng/mL
concentration at 48 h ([3]; male, Beagle, plasma, iv, 15 mg/kg, 15 mg/kg 4 h IV infusion, individual animals, read-out: Plasma BC-2059, 48 h): 664 ng/mL
concentration at 72 h ([3]; male, Beagle, plasma, iv, 15 mg/kg, 15 mg/kg 4 h IV infusion, individual animals, read-out: Plasma BC-2059, 72 h): 393 ng/mL
concentration at 96 h ([3]; male, Beagle, plasma, iv, 15 mg/kg, 15 mg/kg 4 h IV infusion, individual animals, read-out: Plasma BC-2059, 96 h): 277 ng/mL
concentration at 120 h ([3]; male, Beagle, plasma, iv, 15 mg/kg, 15 mg/kg 4 h IV infusion, individual animals, read-out: Plasma BC-2059, 120 h): 228 ng/mL
Cmax ([3]; male, Beagle, plasma, 15 mg/kg IV over 4 h, mean, n = 4 males): 1340 ± 187 ng/mL
AUC(0-t) ([3]; male, Beagle, plasma, 15 mg/kg IV over 4 h, mean, n = 4 males, read-out: AUC0-120 h): 73500 ng·h/mL
half-life ([3]; male, Beagle, plasma, 15 mg/kg IV over 4 h, mean, n = 4 males, read-out: T½ (converted)): 2.21 days
concentration at 5 day ([4]; Nebulizer (ultrasonic eRapid, Altera), 5 daily doses on Days 1-5, read-out: Lung Concentration (ng/g)): 19100 ng/g
concentration at 5 day ([4]; Nebulizer (ultrasonic eRapid, Altera), 5 daily doses on Days 1-5, read-out: Lung Concentration (ng/mL)): 4770 ng/mL
lung tissue concentration in the previous testing (assayed concentration) ([4]; mouse lung, previous nebulization testing): ~0.02 mg/g
Lung Concentration (ng/g) [4, 7]: 17200 ng/g and 18800 ng/g and 12200 ng/g and 22900 ng/g
Lung Concentration (ng/mL) [4, 7]: 4290 ng/mL and 4690 ng/mL and 3040 ng/mL and 5730 ng/mL
hemolysis of red blood cells (red blood cells): does not cause hemolysis
